Assay [1] has as its system bone marrow derived CD56+ cells. Nature of the assay: Proliferation and subsets of bone marrow derived CD56+ cells in culture. The class given is cell-based, human. The procedure:
Bone marrow (BM) and peripheral blood (PB) cells were layered on a Ficoll-Hypaque gradient (1.077 g/mL; Sigma), and centrifuged at 800×g for 30 min. The mononuclear cells in the interface layer were collected and washed three times in phosphate-buffered saline (PBS) (Biological Industries, Israel) containing 0.5% HSA.
Cord blood (CB), bone marrow (BM) or peripheral blood (PB) cells were layered on a Ficoll-Hypaque gradient (1.077 g/mL; Sigma), and centrifuged at 800×g for 30 minutes for separation of the mononuclear cells. The cells in the interface layer were collected and washed three times in phosphate-buffered saline (PBS) (Biological Industries, Israel) containing 0.5% HSA. To purify the CD56+ cells, the mononuclear cell fraction was subjected to two cycles of immunomagnetic bead separation, using a “MiniMACS or CliniMACS CD56 progenitor cell isolation kit” (Miltenyi Biotec Bergisch, Gladbach, Germany), according to the manufacturer's recommendations. Briefly, CD56+ cells are reacted with CD56+ specific magnetic immunobeads, separated and with a magnetic separator, and purified from unbound cells by washing. The purity of the CD56+ population thus obtained is approximately 92%, as evaluated by flow cytometry.
2. Purified CD56+ or CD56+CD3− cells from total nuclear or mononuclear cells or from the fraction depleted from CD34+ or CD133+ cells were cultured in culture bags, T-Flasks or 24 well plates at a concentration of 1-100×10^4 cells/ml in MEMα/10% FCS or CellGro SCGM (Cell Genix)/5% Human Serum/LiforCell® FBS Replacement (Lifeblood Products) containing the following human recombinant cytokines:, interleukin-2 (IL-2) (5-50 ng/ml), interleukin-15 (IL-15), FLT-3 or SCF or FLT3 and SCF or IL-2 and IL-15 or IL-2 only (Perpo Tech, Inc., Rocky Hill, N.J., USA), with or without nicotinamide, and incubated at 37° C. in a humidified atmosphere of 5% CO2 in air. The cultures were topped up once or twice a week with the same volume of fresh medium containing growth factors with or without nicotinamide. Eventually cultures can be supplemented once or several times a week with IL-2 and or IL-2 and IL-15. To estimate the number of cells in culture, cell samples were stained with trypan blue for counting. At various time points, samples were taken for FACS analysis to assay the relative fractions of NK cells, CD56+CD3−, CD56+CD3+, CD34+CD56+, CD56+CD16+ and/or CD56+ NKG2A cells.
To determine total number of cells on day 7, 14 and 21, the cell count/ml was multiplied by the volume of the culture medium. In order to determine the number of NK cells in culture, the total number of cells in culture was multiplied by the percent of CD56+/CD3− cells measured with the FACS on days 7, 14 or 21. To measure fold expansion, total number of NK cells on days 7, 14 and 21 was divided by total number of NK cells seeded in culture on day-0.
The cells were washed with a PBS solution containing 1% BSA, and stained (at 4° C. for 30 min) with fluorescein isothiocyanate (FITC)- or phycoerythrin (PE)-conjugated antibodies or allophycocyanin (APC). The cells were then washed in the above buffer and analyzed using a FACScalibur® flow cytometer (Becton Dickinson, San Jose, Calif., USA). The cells were passed at a rate of up to 1000 cells/second, using a 488 nm or 661 nm argon laser beam as the light source for excitation. Emission of 10^4 cells was measured using logarithmic amplification, and analyzed using the CellQuest software (Becton Dickinson). Cells stained with FITC, PE and APC-conjugated isotype control antibodies were used to determine background fluorescence.

The test system of another assay is K562 target cells. Nature of the assay: Killing assay, NK cells expanded with irradiated feeder cells. The settings on record: 5:1, 2.5:1 and 1:1 NK cells per target cell. The class given is cell-based, human. The procedure: “Killing” assay: NK cells (effectors cells=E) are combined with K562 or BL2 (target cells=T), or bi-phenotypic leukemia cells at different E to T ratio (E:T). BL2 or K562, or bi-phenotypic leukemia target cells in PBS were labeled with 1 ng/ml CFSE (Invitrogen) for 15 min at 37° C. Calf Serum was added to the cells for 15 minutes, the cells were then washed and resuspended in RPMI medium. 100 μL of bi-phenotypic leukemia, BL2 or K562 cells were placed in a 96 round bottom plate at a concentration of 5×10^3 cells per well. 100 μL of non-stained NK cells were added to the bi-phenotypic leukemia, BL2 or K562 cells at a E:T ratio of 1:1, 2.5:1, 5:1, 10:1 or 20:1 (5×10^3, 1.25×10^4, 2.5×10^4, 5×10^4 and 1×10^5 cells/well, respectively, as indicated). Between 2-48 hours later. Killing of target cells in cell lines such as K562 and BL-2 was determined by FACS as a percentage propidium-iodine (PI)-positive (dead) CFSE-labeled cells. Killing of the primary leukemia cells was determined by counting with the FACS the number of CFSE stained cells that remained in the culture after their culture with the NK cells. A lower number of CFSE+ cells is indicative of higher level of killing.
Peripheral blood-derived mononuclear cell fractions were CD3 depleted and then selected for CD56+ cells by immunobead purification. […]

Where [2] appears, read: 1 mM, 2.5 mM and 5 mM nicotinamide, 7 days.

Each structure is given as a SMILES string.

One compound from US20130011376A1, “Methods for Enhancing Natural Killer Cell Proliferation and Activity” (GAMIDA CELL LTD., priority 2009, published 2013) can be followed below.

In the case of `NC(=O)c1cccnc1` [nicotinamide], in assay [1] (setting [2]), the “proliferation of CD56+CD3+ NKT cells” value is given as “decreased proliferation” and the “proliferation of the CD56+CD3- NK cell subset” value is “enhancement of proliferation”. Moreover, in assay [1] (2.5 mM and 5 mM nicotinamide, 7 days), the “proliferation of CD56+CD16+ NK cells” value is recorded as “most enhanced”. In addition, the “increase of NK cell proliferation between 14 and 21 days” value in assay [1] (2.5 mM nicotinamide) came to 50%. Besides, the “fraction of NK cells displaying the CD56+CD16+ phenotype vs cytokines alone” value in assay [1] (2.5 mM nicotinamide, 14 and 21 days) is given as “significant increase”. Besides, the “proliferation of NK cells (fold increase)” value in assay [1] (2.5 mM nicotinamide, 14 days) came out at 8 fold increase. Moreover, in assay [1] (2.5 mM nicotinamide, 21 days), the “proliferation of NK cells (fold increase)” value stood at 12 fold increase. In addition, the “CD56+CD3- NK cells among cultured cells (dominance over CD56+CD3+ NKT cells)” value in assay [1] (nicotinamide treated cultures, 21 days) is given as “greater than 80%”. Besides, the ex-vivo killing potential entry in the assay on K562 target cells is listed as “increased cytotoxic capability”.
